Reference: patent US20100093721A1, “PHENYL AND HETEROARYL SUBSTITUTED THIENO[2,3-d]PYRIMIDINES AND THEIR USE AS ADENOSINE A2a RECEPTOR ANTAGONISTS” (priority 2008, published 2010)

Experiments:
[1] = target: T1, human adenosine A2a receptor (Homo sapiens, UniProt P29274); assay: Adenosine A2a Receptor Functional Assay (A2AGAL2); format: cell-based; conditions: CHO-K1 cells, cAMP inducible beta-galactosidase reporter, 15 nM NECA agonist challenge
T1 construct: expressed in transfected cells; host or cells: CHO-K1
Procedure: Adenosine A2a Receptor Functional Assay (A2AGAL2)
Prior to assay, these plates were cultured for two days at 37° C., 5% CO2, 90% Rh. On the day of the functional assay, culture media was removed and replaced with 45 uL assay medium (Hams/F-12 Modified (Mediatech #10-080CV) supplemented w/0.1% BSA). Test compounds were diluted and 11 point curves created at a 1000× concentration in 100% DMSO. Immediately after addition of assay media to the cell plates, 50 nL of the appropriate test compound antagonist or agonist control curves were added to cell plates using a Cartesian Hummingbird. […] A control curve of NECA, a DMSO/Media control, and a single dose of Forskolin (Sigma F3917) were also included on each plate. After additions, cell plates were allowed to incubate at 37° C., 5% CO2, 90% Rh for 5.5-6 hours. After incubation, media was removed, and cell plates were washed 1×50 uL with DPBS w/o Ca & Mg (Mediatech 21-031-CV). Into dry wells, 20 uL of 1× Reporter Lysis Buffer (Promega E3971 (diluted in dH2O from 5× stock)) was added to each well and plates frozen at −20° C. overnight. For β-galactosidase enzyme colorimetric assay, plates were thawed out at room temperature and 20 μL 2× assay buffer (Promega) was added to each well. Color was allowed to develop at 37° C., 5% CO2, 90% Rh for 1-1.5 h or until reasonable signal appeared. The colorimetric reaction was stopped with the addition of 60 μL/well 1M sodium carbonate. Plates were counted at 405 nm on a SpectraMax Microplate Reader (Molecular Devices). Data was analyzed in Microsoft Excel and IC/EC50 curves were fit using a standardized macro.

[2] = target: T2, human adenosine A1 receptor (Homo sapiens, UniProt P30542); assay: Adenosine A1 Receptor Functional Assay (A1GAL2); format: cell-based; conditions: CHO-K1 cells, cAMP inducible beta-galactosidase reporter, 4 nM r-PIA/1 uM Forskolin challenge
T2 construct: expressed in transfected cells; host or cells: CHO-K1
T2 sequence (P30542 1-326): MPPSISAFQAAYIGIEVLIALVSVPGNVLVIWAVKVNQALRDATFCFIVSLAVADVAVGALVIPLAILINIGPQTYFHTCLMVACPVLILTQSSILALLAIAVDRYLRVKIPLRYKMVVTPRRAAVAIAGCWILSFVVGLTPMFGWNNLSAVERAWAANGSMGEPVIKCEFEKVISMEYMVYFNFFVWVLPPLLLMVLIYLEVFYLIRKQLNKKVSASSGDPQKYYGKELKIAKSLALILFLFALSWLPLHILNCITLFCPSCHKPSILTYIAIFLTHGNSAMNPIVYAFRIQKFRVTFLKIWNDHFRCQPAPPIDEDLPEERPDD
Procedure: Adenosine A1 Receptor Functional Assay (A1GAL2)
To initiate the functional assay, cryopreserved CHO-K1 cells overexpressing the human adenosine A1 receptor and containing a cAMP inducible beta-galactosidase reporter gene were thawed, centrifuged, DMSO containing media removed, and then seeded with fresh culture media into clear 384-well tissue culture treated plates (BD #353961) at a concentration of 10K cells/well. Prior to assay, these plates were cultured for two days at 37° C., 5% CO2, 90% Rh. On the day of the functional assay, culture media was removed and replaced with 45 uL assay medium (Hams/F-12 Modified (Mediatech #10-080CV) supplemented w/0.1% BSA). Test compounds were diluted and 11 point curves created at a 1000× concentration in 100% DMSO. Immediately after addition of assay media to the cell plates, 50 nL of the appropriate test compound antagonist or agonist control curves were added to cell plates using a Cartesian Hummingbird. Compound curves were allowed to incubate at room temperature on cell plates for approximately 15 minutes before addition of a 4 nM r-PIA (Sigma P4532)/1 uM Forskolin (Sigma F3917) agonist challenge (5 uL volume). A control curve of r-PIA in 1 uM Forskolin, a DMSO/Media control, and a single dose of Forskolin were also included on each plate. After additions, cell plates were allowed to incubate at 37° C., 5% CO2, 90% Rh for 5.5-6 hours. After incubation, media was removed, and cell plates were washed 1×50 uL with DPBS w/o Ca & Mg (Mediatech 21-031-CV). Into dry wells, 20 uL of 1× Reporter Lysis Buffer (Promega E3971 (diluted in dH2O from 5× stock)) was added to each well and plates frozen at −20° C. overnight. For β-galactosidase enzyme calorimetric assay, plates were thawed out at room temperature and 20 μL 2× assay buffer (Promega) was added to each well. Color was allowed to develop at 37° C., 5% CO2, 90% Rh for 1-1.5 h or until reasonable signal appeared. The calorimetric reaction was stopped with the addition of 60 μL/well 1M sodium carbonate. Plates were counted at 405 nm on a SpectraMax Microplate Reader (Molecular Devices). Data was analyzed in Microsoft Excel and IC/EC50 curves were fit using a standardized macro.

[3] = target: T3, human A2a adenosine receptor (Homo sapiens, UniProt P29274); assay: Ligand Binding Assay for Adenosine A2a Receptor; conditions: HEK293 plasma membrane, radioligand [3H]CGS21680; read-out: A2A-B Ki
T3 construct: purchased PerkinElmer RB-HA2a; host or cells: HEK293 plasma membranes
Procedure: Ligand Binding Assay for Adenosine A2a Receptor
Ligand binding assay of adenosine A2a receptor was performed using plasma membrane of HEK293 cells containing human A2a adenosine receptor (PerkinElmer, RB-HA2a) and radioligand [^3H]CGS21680 (PerkinElmer, NET1021). Assay was set up in 96-well polypropylene plate in total volume of 200 μL by sequentially adding 20 μL 1:20 diluted membrane, 130 μL assay buffer (50 mM Tris.HCl, pH7.4 10 mM MgCl2, 1 mM EDTA) containing [^3H] CGS21680, 50 μL diluted compound (4×) or vehicle control in assay buffer. Nonspecific binding was determined by […] NECA. Reaction was carried out at room temperature for 2 hours before filtering through 96-well GF/C filter plate pre-soaked in 50 mM Tris.HCl, pH7.4 containing 0.3% polyethylenimine. Plates were then washed 5 times with cold 50 mM Tris.HCl, pH7.4, dried and sealed at the bottom. Microscintillation fluid 30 μL was added to each well and the top sealed. Plates were counted on Packard Topcount for [^3H]. Data was analyzed in Microsoft Excel and GraphPad Prism programs. (Varani, K.; Gessi, S.; Dalpiaz, A.; Borea, P. A. British Journal of Pharmacology, 1996, 117, 1693)

T3 sequence (P29274 whole entry): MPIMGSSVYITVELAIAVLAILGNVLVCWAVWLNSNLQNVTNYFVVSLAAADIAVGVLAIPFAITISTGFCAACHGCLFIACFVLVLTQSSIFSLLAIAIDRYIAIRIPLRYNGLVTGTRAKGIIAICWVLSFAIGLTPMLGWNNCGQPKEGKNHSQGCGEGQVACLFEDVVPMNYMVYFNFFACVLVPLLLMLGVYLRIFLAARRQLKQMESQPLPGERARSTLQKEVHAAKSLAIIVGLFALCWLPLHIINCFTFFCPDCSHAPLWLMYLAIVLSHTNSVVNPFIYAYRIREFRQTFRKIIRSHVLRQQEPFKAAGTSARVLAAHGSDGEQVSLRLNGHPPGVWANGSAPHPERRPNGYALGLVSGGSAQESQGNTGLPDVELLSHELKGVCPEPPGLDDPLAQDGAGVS
T1 sequence (P29274 whole entry): as above

Compound | Ki [1] | Ki [2] | Ki [3]
Cc1ccc(-c2nc(N)c3cc(CCc4ccccc4)sc3n2)o1 [Example 22, 2-(5-Methyl-furan-2-yl)-6-phenethyl-thieno[2,3-d]pyrimidin-4-ylamine] | 189 nM | 2760 nM | 50 nM
CC(c1ccccc1)c1cc2c(N)nc(-c3ncco3)nc2s1 (racemic) [Example 21, (±)-2-Oxazol-2-yl-6-(1-phenyl-ethyl)-thieno[2,3-d]pyrimidin-4-ylamine] | 19.4 nM | 1180 nM | 72.7 nM
Nc1nc(-c2ccc(C(F)F)o2)nc2sc(C(O)c3ccccc3)cc12 (stereo not drawn) [Example 41, [4-Amino-2-(5-difluoromethyl-furan-2-yl)-thieno[2,3-d]pyrimidin-6-yl]-phenyl-methanol] | 11.3 nM | 223 nM | 17.9 nM
Nc1nc(-c2ccc(C(F)F)o2)nc2sc(Cc3ccccc3)cc12 [Example 43, 6-Benzyl-2-(5-difluoromethyl-furan-2-yl)-thieno[2,3-d]pyrimidin-4-ylamine] | 25.2 nM | 3000 nM | 37.5 nM
Cc1ccc(-c2nc(N)c3cc(CCc4ccc(F)cc4)sc3n2)o1 [Example 29, 6-[2-(4-Fluoro-phenyl)-ethyl]-2-(5-methyl-furan-2-yl)-thieno[2,3-d]pyrimidin-4-ylamine] | 61.2 nM | 1570 nM | 6.61 nM
Cc1ccc(-c2nc(N)c3cc(/C=C/c4ccc(F)cc4)sc3n2)o1 [Example 30, 6-[2-(4-Fluoro-phenyl)-vinyl]-2-(5-methyl-furan-2-yl)-thieno[2,3-d]pyrimidin-4-ylamine] | 938 nM | 20200 nM | 173 nM
Cc1ccc(-c2nc(N)c3cc(Cc4ccccc4)sc3n2)o1 [Example 1, 6-Benzyl-2-(5-methyl-furan-2-yl)-thieno[2,3-d]pyrimidin-4-ylamine] | 11 nM | 279 nM | 11.9 nM
COc1ccccc1C(O)c1cc2c(N)nc(-c3ccc(C)o3)nc2s1 (stereo not drawn) [Example 11, [4-Amino-2-(5-methyl-furan-2-yl)-thieno[2,3-d]pyrimidin-6-yl]-(2-methoxy-phenyl)-methanol] | 1.98 nM | 10.2 nM | 6.72 nM
